Assays:
[1] = target: T1, Tyrosine-protein phosphatase non-receptor type 1 (Homo sapiens) (UniProt P18031); assay: Inhibition of recombinant human PTP1B expressed in Escherichia coli expression system using pNPP as substrate at 100 uM preincubated for 30 mins followed by substrate addition by […]
T1 sequence (whole entry): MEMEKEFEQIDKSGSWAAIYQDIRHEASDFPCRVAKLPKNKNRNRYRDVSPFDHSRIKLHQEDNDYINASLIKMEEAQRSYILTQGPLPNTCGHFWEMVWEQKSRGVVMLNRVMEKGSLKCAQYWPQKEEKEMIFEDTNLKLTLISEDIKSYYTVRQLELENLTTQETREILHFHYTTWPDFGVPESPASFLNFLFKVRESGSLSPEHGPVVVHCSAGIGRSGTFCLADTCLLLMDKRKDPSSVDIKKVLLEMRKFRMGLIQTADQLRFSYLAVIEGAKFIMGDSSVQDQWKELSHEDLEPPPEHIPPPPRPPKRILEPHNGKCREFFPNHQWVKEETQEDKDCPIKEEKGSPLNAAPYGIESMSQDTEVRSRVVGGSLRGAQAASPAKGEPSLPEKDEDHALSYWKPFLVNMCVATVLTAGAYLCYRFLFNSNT

[2] = target: T1, Tyrosine-protein phosphatase non-receptor type 1 (Homo sapiens); assay: Inhibition of recombinant human PTP1B expressed in Escherichia coli expression system using pNPP as substrate at 10 uM preincubated for 30 mins followed by substrate addition by […]
[3] = Intrinsic clearance in mouse liver microsomes at 1 uM preincubated for 5 mins followed by NADPH addition measured up to 30 mins by LC-MS/MS analysis; assay type: ADME; conditions: 0.5 h
[4] = target: T2, Tyrosine-protein phosphatase non-receptor type 1 (Homo sapiens, UniProt P18031); assay: Inhibition of recombinant human PTP1B expressed in Escherichia coli expression system using pNPP as substrate preincubated for 30 mins followed by substrate addition by […]
T2 sequence (P18031 whole entry): T1 sequence (whole entry)

[5] = Intrinsic clearance in rat liver microsomes at 1 uM preincubated for 5 mins followed by NADPH addition measured up to 30 mins by LC-MS/MS analysis; assay type: ADME; conditions: 0.5 h
[6] = Intrinsic permeability of compound at 50 uM at pH 7.4 after 16 hrs by PAMPA assay; assay type: ADME

| Compound | inhibition [1] | inhibition [2] | CLH [3] | Ki [4] | intrinsic clearance (CLint) [5] | Papp at 16 h, 50 µM [6] |
| --- | --- | --- | --- | --- | --- | --- |
| COc1ccc(C(Cc2ccc(-n3ncc(C(=O)O)c3N)cc2)c2nc(-c3ccc(Cl)cc3)no2)cc1 (stereo not given) | 98.3% | 33.7% | 1.5 mL/min/g | 4.4 µM | 2 mL/min/g |  |
| COc1ccc(CN(Cc2ccc(C)cc2)Cc2ccc(-n3ncc(C(=O)O)c3N)cc2)cc1 | 49.7% | 5% |  |  |  |  |
| Nc1c(C(=O)O)cnn1-c1ccc(CN(Cc2ccccc2)Cc2ccccc2)cc1 | 64% | 8.9% |  |  |  |  |
| COc1ccc(CN(Cc2ccc(F)cc2)Cc2ccc(-n3ncc(C(=O)O)c3N)cc2)cc1OC | 94% | 35.1% | 7.4 mL/min/g | 4.1 µM | 4 mL/min/g |  |
| Nc1c(C(=O)O)cnn1-c1ccc(CN(Cc2ccc(F)cc2)Cc2ccc(Cl)cc2)cc1 | 97.4% | 43.8% | 2.1 mL/min/g | 4.5 µM | 3 mL/min/g | 10.6 ×10⁻⁶ cm/s |
| COc1ccc(CN(Cc2ccc(OC)cc2)Cc2ccc(-n3ncc(C(=O)O)c3N)cc2)cc1 | 76.9% | 9.9% | 5.6 mL/min/g | 7.1 µM | 2.5 mL/min/g | 12.5 ×10⁻⁶ cm/s |
| Nc1c(C(=O)O)cnn1-c1ccc(CC(c2ccc(F)cc2)c2nc(-c3cccc(F)c3)no2)cc1 (stereo not given) | 94.9% | 19% |  |  |  |  |
| COc1ccc(C(Cc2ccc(-n3ncc(C(=O)O)c3N)cc2)c2nc(-c3cccc(F)c3)no2)cc1 (stereo not given) | 93.3% | 22% | 1.3 mL/min/g | 8.6 µM | 3 mL/min/g |  |
| COc1ccc(-c2noc(C(Cc3ccc(-n4ncc(C(=O)O)c4N)cc3)c3ccc(F)cc3)n2)cc1 (stereo not given) | 95.5% | 25.8% | 1.5 mL/min/g | 8.1 µM | 3 mL/min/g | 0.4 ×10⁻⁶ cm/s |
| COc1ccc(CN(Cc2ccc(F)cc2)Cc2ccc(-n3ncc(C(=O)O)c3N)cc2)cc1 | 82.2% | 21.6% |  |  |  |  |
| Nc1c(C(=O)O)cnn1-c1ccc(CN(Cc2ccc(F)cc2)Cc2ccc(F)cc2)cc1 | 98.4% | 40.8% |  |  |  |  |
| CC(C)NCC(O)COc1cccc2ccccc12 (stereo not given) [PROPRANOLOL] |  |  |  |  |  | 16.6 ×10⁻⁶ cm/s |
| Nc1c(C(=O)O)cnn1-c1ccc(CC(c2ccc(F)cc2)c2nc(-c3ccc(Cl)cc3)no2)cc1 (stereo not given) | 97.3% | 30.8% | 0 mL/min/g | 4.6 µM | 3 mL/min/g | 9.1 ×10⁻⁶ cm/s |
| Nc1c(C(=O)O)cnn1-c1ccc(CN(Cc2ccc(Cl)cc2)Cc2ccc(F)c(F)c2)cc1 | 97.2% | 22.5% | 1.2 mL/min/g | 11 µM | 2 mL/min/g | 49.8 ×10⁻⁶ cm/s |
| Nc1c(C(=O)O)cnn1-c1ccc(CN(Cc2ccc(F)cc2)Cc2ccc(F)c(F)c2)cc1 | 95.2% | 19.5% | 2.7 mL/min/g | 13 µM | 3 mL/min/g | 27.9 ×10⁻⁶ cm/s |

More lines, now with the values ahead:

| inhibition [1] | inhibition [2] | CLH [3] | Ki [4] | intrinsic clearance (CLint) [5] | Papp at 16 h, 50 µM [6] | Compound |
| --- | --- | --- | --- | --- | --- | --- |
| 89.5% | 18.8% |  |  |  |  | Nc1c(C(=O)O)cnn1-c1ccc(CC(C(=O)c2ccc(Cl)cc2)c2ccc(F)cc2)cc1 (stereo not given) |
| 32.6% | 9.6% |  |  |  |  | Nc1c(C(=O)O)cnn1-c1ccc(CC(C(=O)c2ccccc2)c2ccccc2)cc1 (stereo not given) |
| 91.5% | 16.2% |  |  |  | 1.5 ×10⁻⁶ cm/s | Nc1c(C(=O)O)cnn1-c1ccc(CC(C(=O)c2ccc(Cl)cc2)c2ccc(F)c(F)c2)cc1 (stereo not given) |
| 39.7% | 4.8% |  |  |  |  | COc1ccc(C(=O)C(Cc2ccc(-n3ncc(C(=O)O)c3N)cc2)c2ccc(OC)cc2)cc1 (stereo not given) |
| 43.9% | 19% |  |  |  |  | Nc1c(C(=O)O)cnn1-c1ccc(CC(C(=O)c2ccccc2)c2ccc(F)cc2)cc1 (stereo not given) |
| 48.5% | 10.5% |  |  |  |  | Nc1c(C(=O)O)cnn1-c1ccc(CC(C(=O)c2ccccc2)c2ccc(F)c(F)c2)cc1 (stereo not given) |
| 64% | 12.2% |  |  |  |  | Nc1c(C(=O)O)cnn1-c1ccc(CC(c2ccccc2)c2nc(-c3ccccc3)no2)cc1 (stereo not given) |
| 58.5% | 13.5% |  |  |  |  | COc1ccc(C(=O)C(Cc2ccc(-n3ncc(C(=O)O)c3N)cc2)c2ccc(F)cc2)cc1 (stereo not given) |
| 82.2% | 21.6% |  |  |  |  | Nc1c(C(=O)O)cnn1-c1ccc(CC(C(=O)c2ccc(F)cc2)c2ccc(F)c(F)c2)cc1 (stereo not given) |
| 36.8% | 12.1% |  |  |  |  | Nc1c(C(=O)O)cnn1-c1ccc(CC(C(=O)c2ccc(F)cc2)c2ccccc2)cc1 (stereo not given) |
| 34.4% | 0.8% |  |  |  |  | Nc1c(C(=O)O)cnn1-c1ccc(CC(C(=O)c2ccc(F)cc2)c2ccc(F)cc2)cc1 (stereo not given) |

Source: ChEMBL document CHEMBL3870366, “Rational design, synthesis, and structure-activity relationships of 5-amino-1H-pyrazole-4-carboxylic acid derivatives as protein tyrosine phosphatase 1B inhibitors” (Bioorg Med Chem, 2017)
